US9138421B2, “Platinum compounds for treating cell proliferative diseases, preparation method and use thereof” (priority 2011, dated 2015)
Marks after values point to notes of the source that are not given here.

How the values were obtained:
[1] = Acute toxic effect of platinum complex on normal mice (LD50); assay type: in vivo, Kunming mice; conditions: both sexes, Kunming, mouse, in vivo; single intravenous administration in 5% glucose, 14 days observation, Bliss method
Experimental: (§1) Test 1: Acute Toxic Effect of Platinum Complex on Normal Mice
(§2) Embodiment platinum compound was dissolved with 5% glucose solution. […] Mortality and toxicity were observed after administration.

[2] = Solubility in water
[3] = test system: normal mice; experiment: Acute toxic effect of platinum complex on normal mice (LD50); assay type: in vivo, Kunming mice; conditions: single intravenous administration in 5% glucose, 14 days observation, Bliss method
Experimental: as §1, §2

[4] = test system: lung cancer H292; experiment: MTT cytotoxicity, lung cancer H292; assay type: cell-based; conditions: n = 6
Experimental: (§3) The toxic action of Embodiment platinum containing compounds was observed on tumor cells by MTT colorimetric method. Several kinds of tumor cells in exponential growth phase were prepared into single cell suspension, inoculated on 96 pore plat at the density of 4×10^4/hole, cultivated for 24 hours to enable to adhere to wall with 1640 culture medium containing 10% fetal calf serum (complete medium) at 37° C.; the final culture volume was 100 μl. Cell morphology was observed after culture for 24 hours.

[5] = test system: Pulmonary epithelial cell BEAS-2B; experiment: MTT cytotoxicity, pulmonary epithelial cell BEAS-2B; assay type: cell-based; conditions: n = 6
Experimental: as §3

[6] = test system: lung cancer Lewis; experiment: MTT cytotoxicity, lung cancer Lewis; assay type: cell-based; conditions: n = 6
Experimental: as §3

[7] = test system: colon cancer SW480; experiment: MTT cytotoxicity, colon cancer SW480; assay type: cell-based; conditions: n = 6
Experimental: as §3

[8] = test system: lung cancer H292 cell line; experiment: In vivo antitumor activity, lung cancer H292 in nude mice; conditions: H292, 15 mg/kg, every 2 days, 4 times, end 30 days after inoculation
[9] = test system: testis cell ST; experiment: MTT cytotoxicity, testis cell ST; assay type: cell-based; conditions: n = 6
Experimental: as §3

[10] = test system: gastric cancer MGC803; experiment: MTT cytotoxicity, gastric cancer MGC803; assay type: cell-based; conditions: n = 6
Experimental: as §3

[11] = test system: esophagus cancer ECA109; experiment: MTT cytotoxicity, esophagus cancer ECA109; assay type: cell-based; conditions: n = 6
Experimental: as §3

[12] = test system: breast cancer MCF-7 tumor cell line; experiment: In vivo antitumor activity, breast cancer MCF-7 in nude mice; conditions: MCF-7, 15 mg/kg, every 2 days, 4 times, end 30 days after inoculation
[13] = test system: colon cancer SW480 cell line; experiment: In vivo antitumor activity, colon cancer SW480 in nude mice (2), dose series; conditions: 3 days, tumor weighed 24 hours after drug discontinuance

Compound | LD50 at 14 days [1] | solubility ([2]; water) | LD50 value [3] | IC50 [4] | IC50 [7] | tumor inhibition rate (%) [8] | IC50 [9] | IC50 [10] | tumor inhibition rate (%) [12] | other results
CCN(CC)CCC1C(=O)[O][Pt]([NH2])([NH2])[O]C1=O [compound 5, [2-(2-diethylamine ethyl)-malonato].[cis-diamine] platinum (II) phosphate] | 853 µmol/kg | 187 mg/mL | – | – | – | – | – | – | – | –
[2-(2-ethylamine ethyl)-malonato].[cis-(1,2-trans-cyclohexamethylene diamine)]platinum (II) phosphate [compound 12] | – | – | 0.609 mmol/kg | 241 µM | 203 µM | 76.3 ± 20.67*^ % | – | – | – | IC50 [5]: 15 µM; IC50 [6]: 57 µM; solubility ([2]; in water): 221 mg/mL
CCN(CC)CCC1C(=O)[O][Pt]2([NH]C3CCCCC3[NH]2)[O]C1=O.O=C(O)CC(O)(CC(=O)O)C(=O)O (stereo not drawn) [compound 13, [2-(2-diethylamine ethyl)-malonato].[cis-(1,2-trans-cyclohexamethylenediamine)]platinum (II) citrate] | – | – | – | 316 µM | 80 µM | 56.1 ± 9.81 ^ % | – | – | – | IC50 [5]: 145 µM; IC50 [6]: 36 µM
CN(C)CCCC1C(=O)[O][Pt]([NH2])([NH2])[O]C1=O [compound 3, [2-(3-dimethylamine propyl)-malonato].[cis-diamine] platinum (II) phosphate] | 824 µmol/kg | 164 mg/mL | – | – | – | – | – | – | – | –
CCN(CC)CCC1C(=O)[O][Pt]2([NH]CCC[NH]2)[O]C1=O.O=P(O)(O)O [compound 21, [2-(2-diethylamine ethyl)-malonato].[cis-1,3-propyldiamine] platinum (II) phosphate] | – | – | 0.716 mmol/kg | 205 µM | – | – | 16 µM | 216 µM | 40.3 ± 9.65% | IC50 [11]: 174 µM; solubility ([2]; in water): 231 mg/mL
[NH2][Pt]1([NH2])[O]C(=O)C(CCCN2CCCCC2)C(=O)[O]1 [compound 29, [2-(3-(1-piperidyl)-propyl)-malonato].[cis-diamine]platinum (II) phosphate] | 784 µmol/kg | 159 mg/mL | – | – | – | – | – | – | – | –
[2-(2-diethylamine ethyl)-malonato].[cis-1,2-(1,2-dihydroxymethyl)-ethyldiamine]platinum (II) phosphate [compound 23] | – | – | 0.702 mmol/kg | 84 µM | – | – | 147 µM | 367 µM | 44.1 ± 15.12% | IC50 [11]: 212 µM
CCCN(CCC)CCC1C(=O)[O][Pt]2([NH]C3CCCCC3[NH]2)[O]C1=O.O=P(O)(O)O (stereo not drawn) [compound 15, [2-(2-di-n-propylamine ethyl)-malonato].[cis-(1,2-trans-cyclohexamethylenediamine)]platinum (II) phosphate] | – | – | 0.469 mmol/kg | 651 µM | 92 µM | 59.0 ± 11.02 ^ % | 12 µM | 149 µM | – | –
N.N.[Cl][Pt][Cl] [cisplatin, Cis-dichlorodiamminoplatinum, reference compound] | – | – | – | – | – | – | – | – | – | tumor inhibition rate (%) (x ±SD) ([13]; SW480, 3 mg/kg): 62.9 ± 9.01%; tumor inhibition rate (%) (x ±SD) ([13]; SW480, 5 mg/kg): 71.1 ± 10.76%
[NH2][Pt]1([NH2])[O]C(=O)C(CCCN2CCCC2)C(=O)[O]1 [compound 30, [2-(3-(1-pyrrolidyl)-propyl)-malonato].[cis-diamine] platinum (II) phosphate] | 802 µmol/kg | 160 mg/mL | – | – | – | – | – | – | – | –
[2-(3-diethylamine propyl)-malonato].[cis-(1,2-trans-diaminocyclopentane)]platinum (II) phosphate [compound 17] | – | – | 0.616 mmol/kg | 249 µM | 205 µM | – | 302 µM | 556 µM | 39.8 ± 12.12% | –
CNCCC1C(=O)[O][Pt]([NH2])([NH2])[O]C1=O [compound 1, [2-(2-methylamine ethyl)-malonato].[cis-diamino]platinum (II) phosphate] | 722 µmol/kg | 221 mg/mL | – | – | – | – | – | – | – | –
[2-(2-di-n-propylamine ethyl)-malonato].[cis-1,4-butanediamine] platinum (II) phosphate [compound 22] | – | – | 0.882 mmol/kg | 102 µM | – | – | 302 µM | 556 µM | 40.9 ± 8.97% | IC50 [11]: 215 µM
CN(C)CCC1C(=O)[O][Pt]([NH2])([NH2])[O]C1=O [compound 2, [2-(2-dimethylamine ethyl)-malonato].[cis-diamine] platinum (II) acetate] | 791 µmol/kg | 198 mg/mL | – | – | – | – | – | – | – | –
[2-(2-amino ethyl)-malonato].[cis-(1,2-trans-cyclohexamethylene diamine)]platinum (II) phosphate [compound 9] | – | – | 0.724 mmol/kg | 63 µM | 71 µM | 79.2 ± 14.99 % | – | – | – | IC50 [5]: 57 µM; IC50 [6]: 69 µM; solubility ([2]; in water): 275 mg/mL
CCN(CC)CCCC1C(=O)[O][Pt]2([NH]C3CC3[NH]2)[O]C1=O.O=P(O)(O)O (stereo not drawn) [compound 19, [2-(3-diethylamine propyl)-malonato].[cis-(1,2-trans-cyclopropyldiamine)]platinum (II) phosphate] | – | – | 0.802 mmol/kg | 62 µM | – | – | 251 µM | 213 µM | 52.6 ± 10.5 % | IC50 [11]: 88 µM; solubility ([2]; in water): 218 mg/mL
NCCCC1C(=O)[O][Pt]([NH2])([NH2])[O]C1=O [compound 4, [2-(3-amino propyl)-malonato].[cis-diamine] platinum (II) phosphate] | 802 µmol/kg | 176 mg/mL | – | – | – | – | – | – | – | –
[2-(3-dimethylamine propyl)-malonato].[cis-(1,2-trans-cyclohexamethylene diamine)]platinum (II) phosphate [compound 11] | – | – | 0.509 mmol/kg | 6 µM | 57 µM | 35.9 ± 7.13 % | – | – | – | IC50 [5]: 168 µM; IC50 [6]: 213 µM
CCN(CC)CCCC1C(=O)[O][Pt]2([NH]C3CCCCC3[NH]2)[O]C1=O.O=P(O)(O)O (stereo not drawn) [compound 14, [2-(3-diethylamine propyl)-malonato].[cis-(1,2-trans-cyclohexamethylenediamine)]platinum (II) phosphate] | – | – | 0.902 mmol/kg | 161 µM | 78 µM | 39.8 ± 8.51 % | 251 µM | 213 µM | – | –
[2-(2-dimethylamine ethyl)-malonato].[cis-1,2-ethylenediamine] platinum (II) tosilate [compound 20] | – | – | 0.753 mmol/kg | 351 µM | – | – | 12 µM | 149 µM | 54.52 ± 10.25 % | IC50 [11]: 193 µM
CCN(CC)CCCC1C(=O)[O][Pt]2([NH]C3CCC3[NH]2)[O]C1=O.O=C(O)CCC(=O)O (stereo not drawn) [compound 18, 2-(3-diethylaminepropyl)-malonic.cis-(1,2-trans-aminocyclobutyl) platinum (II) succinate] | – | – | – | 224 µM | 281 µM | – | 147 µM | 367 µM | 45.0 ± 9.87% | –
[2-(3-di-n-propylamine propyl)-malonato].[cis-(1, 2-trans-cyclohexamethylene diamine)]platinum (II) phosphate [compound 16] | – | – | 0.524 mmol/kg | 402 µM | 77 µM | 35.2 ± 6.43 % | 16 µM | 216 µM | – | –
CCN(CC)CCCC1C(=O)[O][Pt]([NH2])([NH2])[O]C1=O [compound 6, 2-(3-diethylaminepropyl)-malonic-cis-diamino platinum (II) phosphate] | 749 µmol/kg | 165 mg/mL | – | – | – | – | – | – | – | –
[2-(2-dimethylamine ethyl)-malonato].[cis-1,3-(2,2-hydroxymethyl)-propane diamine]platinum (II) phosphate [compound 24] | – | – | 0.509 mmol/kg | 65 µM | – | – | 153 µM | 217 µM | 44.8 ± 11.31% | IC50 [11]: 125 µM
CN(C)CCC1C(=O)[O][Pt]2([NH]C3CCCCC3[NH]2)[O]C1=O (stereo not drawn) [compound 10, [2-(2-dimethylamino ethyl)-malonato].[cis-(1,2-trans-cyclohexanediamine)] platinum (II)] | – | – | 0.593 mmol/kg | 54 µM | 94 µM | 55.3 ± 11.21 ^ % | – | – | – | IC50 [5]: 220 µM; IC50 [6]: 143 µM
